From patent US20260138978A1, “POSITIVE ALLOSTERIC MODULATORS OF THE MUSCARINIC ACETYLCHOLINE RECEPTOR M1” (Vanderbilt University, priority 2022, published 2026)

How the values were obtained:
[1] = biological target: T1, human mAChRM1 (Homo sapiens, UniProt P11229); assay: mAChR M1 cell-based functional assay (calcium mobilization), agonist activity upon compound addition, Emax relative to acetylcholine maximum; details: for EC50 / Agonist Activity Human M1 EC50: calcium mobilization upon compound addition; for Emax: relative to the maximum for acetylcholine
T1 construct: host or cells: CHO-K1
T1 sequence (P11229 1-460): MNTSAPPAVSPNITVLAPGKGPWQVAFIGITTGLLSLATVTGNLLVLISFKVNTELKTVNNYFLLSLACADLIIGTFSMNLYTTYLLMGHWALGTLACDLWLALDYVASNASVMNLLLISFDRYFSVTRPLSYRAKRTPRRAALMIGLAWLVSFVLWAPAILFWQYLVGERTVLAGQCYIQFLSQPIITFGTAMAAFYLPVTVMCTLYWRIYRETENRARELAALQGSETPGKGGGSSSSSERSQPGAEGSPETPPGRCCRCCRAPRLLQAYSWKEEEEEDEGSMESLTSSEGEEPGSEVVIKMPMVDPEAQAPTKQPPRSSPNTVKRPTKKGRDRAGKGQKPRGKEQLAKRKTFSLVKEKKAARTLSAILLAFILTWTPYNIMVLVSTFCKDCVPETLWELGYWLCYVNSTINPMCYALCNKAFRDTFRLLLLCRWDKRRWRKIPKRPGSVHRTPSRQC
From the text: Lack of agonist activity may be measured as weak or no increase in calcium fluorescence in mAChRM1-transfected CHO-K1 cells in the presence of the compound, compared to the response of equivalent CHO-K1 cells in the absence of the compound. Lack of mAChRM1 agonist activity may be determined as a percent response relative to acetylcholine. For example, a disclosed compound may have less than or equal to 30%, 25%, 20%, 15%, 10%, 5%, or 1% mAChRM1 agonist activity relative to acetylcholine. A disclosed compound may have substantially no mAChRM1 agonist activity. […] The absence of mAChRM1 agonist activity may contribute to the avoidance of cholinergic adverse effect liability.
(§1) Chinese hamster ovary (CHO-K1) cells stably expressing rat (r)M1 were purchased from the American Type Culture Collection and cultured according to their indicated protocol. CHO cells stably expressing human (h)M2, hM3, and hM5 were described previously (Levey, et al., 1991); hM1 and hM4 cDNAs were purchased from Missouri S&T cDNA Resource; rM4 cDNA was provided by T. I. Bonner (National Institutes of Health, Bethesda, MD). rM2 and rM3 were cloned from a rat brain cDNA library and sequence verified. hM1, rM2, rM3, hM4, and rM4 cDNAs were used to stably transfect CHO-K1 cells purchased from the American Type Culture Collection using Lipofectamine 2000. To make stable rM2, hM2, rM3, hM4. and rM4 cell lines for use in calcium mobilization assays, these cells also were stably transfected with a chimeric G-protein (Gqi5) (provided by B. R. Conklin, University of California, San Francisco) using Lipofectamine 2000. rM1, hM1, rM3, hM3, rM5, and hM5 cells were grown in Ham's F-12 medium containing 10% heat-inactivated fetal bovine serum (FBS), 20 mM HEPES, and 50 μg/mL G418 sulfate. rM2-Gqi5, hM2-Gqi5, and hM4-Gqi5 cells were grown in the same medium also containing 500 µg/mL Hygromycin B. Stable rM4-Gqi5 cells were grown in DMEM containing 10% heat-inactivated FBS, 20 mM HEPES, 400 μg/mL G418 sulfate, and 500 μg/mL Hygromycin B.
(§2) For high throughput measurement of agonist-evoked increases in intracellular calcium, CHO-K1 cells stably expressing muscarinic receptors were plated in growth medium lacking G418 and hygromycin at 15,000 cells/[…] in Greiner 384-well black-walled, tissue culture (TC)-treated, clear-bottom plates (VWR). Cells were incubated overnight at 37° C. and 5% CO2. The next day, cells were washed using an ELX 405 (BioTek) with four washes (80 μL) of assay buffer then aspirated to 20 μL. Next, 20 μL of 16 μM Fluo-4/acetoxymethyl ester (Invitrogen, Carlsbad, CA) prepared as a 2.3 mM stock in DMSO and mixed in a 1:1 ratio with 10% (w/v) Pluronic F-127 and diluted in assay buffer was added to the wells and the cell plates were incubated for 50 min at 37° C. and 5% CO2. Dye was removed by washing with the ELX 405 (four 80 μL washes of assay buffer) then aspirated to 20 μL. Compound master plates were formatted in an 11 point CR^c format (1:3 dilutions) in 100% DMSO with a starting concentration of 10 mM using the BRAVO liquid handler (Agilent). Test compound CRCs were then transferred to daughter plates (240 nL) using the Echo acoustic plate reformatter (Labcyte, Sunnyvale, CA) and then diluted into assay buffer ([…]) to a 2× stock using a Thermo Fisher Combi (Thermo Fisher Scientific, Waltham, MA).
Calcium flux was measured using the Functional Drug Screening System (FDSS) 6000 (Hamamatsu Corporation, Tokyo, Japan) as an increase in the fluorescent static ratio. Compounds were applied to cells (20 μL, 2×) using the automated system of the FDSS 6000 at 4 s into the 300 s protocol and the data were collected at 1 Hz. […] Agonist activity was analyzed as a concentration-dependent increase in calcium mobilization upon compound addition. Emax values for agonist activity are expressed relative to the maximum for acetylcholine. Positive allosteric modulator activity was analyzed as a concentration-dependent increase in the EC20 acetylcholine response. […]

[2] = biological target: T1, human mAChRM1; assay: mAChR M1 cell-based functional assay (calcium mobilization), positive allosteric modulator activity: increase in the EC20 acetylcholine response; details: for Emax: PAM mode; for EC50: increase in the EC20 acetylcholine response, read-out: PAM Activity Human M1 EC50
From the text: as §1, §2
Calcium flux was measured using the Functional Drug Screening System (FDSS) 6000 (Hamamatsu Corporation, Tokyo, Japan) as an increase in the fluorescent static ratio. Compounds were applied to cells (20 μL, 2×) using the automated system of the FDSS 6000 at 4 s into the 300 s protocol and the data were collected at 1 Hz. […] Agonist activity was analyzed as a concentration-dependent increase in calcium mobilization upon compound addition. Emax values for agonist activity are expressed relative to the maximum for acetylcholine. Positive allosteric modulator activity was analyzed as a concentration-dependent increase in the EC20 acetylcholine response. Antagonist activity was analyzed as a concentration-dependent decrease in the EC80 acetylcholine response. Concentration-response curves were generated using a four-parameter logistical equation in XLfit curve fitting software (IDBS, Bridgewater, NJ) for Excel (Microsoft, Redmond, WA) or Prism (GraphPad Software, Inc., San Diego, CA).
Activity (EC50 and Emax) was determined in the mAChRM1 cell-based functional assay as described above and the data are shown in Table 16. The compound numbers correspond to the compound numbers used in Table 15.

Row | Structure (SMILES) | EC50 [1] [nM] | Emax [1] [%] | Emax [2] [%] | EC50 [2] [nM] | Agonist Activity Human M1 EC50 [1]
1 | Cn1cc2c(-c3cc(F)c(CN4Cc5ncccc5C4=O)c(Cl)c3)ccc(C(C)(C)O)c2n1 [Compound 61, 6-(2-chloro-6-fluoro-4-(7-(2-hydroxypropan-2-yl)-2-methyl-2H-indazol-4-yl)benzyl)-6,7-dihydro-5H-pyrrolo[3,4-b]pyridin-5-one] | 4610 | 18 | 70 | 103 | 
2 | Cn1nc2cc(C(C)(C)O)ccc2c1-c1cc(F)c(CN2Cc3ncccc3C2=O)c(F)c1 [Compound 51] |  |  | 30 | ≥ 10000 | inactive
3 | Cn1cc2c(-c3cc(F)c(CN4Cc5cccnc5C4=O)c(N4CCC4)c3)ccc(C(C)(C)O)c2n1 [Compound 135, 6-(2-(azetidin-1-yl)-6-fluoro-4-(7-(2-hydroxypropan-2-yl)-2-methyl-2H-indazol-4-yl)benzyl)-5,6-dihydro-7H-pyrrolo[3,4-b]pyridin-7-one] | ≥ 10000 | 23 | 80 | 1030 | 
4 | Cn1cc2c(-c3ccc(CN4Cc5cccnc5C4=O)c(F)c3)ccc(C(C)(C)O)c2n1 [Compound 130, 6-(2-fluoro-4-(7-(2-hydroxypropan-2-yl)-2-methyl-2H-indazol-4-yl)benzyl)-5,6-dihydro-7H-pyrrolo[3,4-b]pyridin-7-one] | 7490 | 12 | 88 | 251 | 
5 | Cn1cc2cc(-c3cc(F)c(CN4Cc5cccc(F)c5C4=O)cc3F)cc(C(C)(C)O)c2n1 [Compound 169, 2-(2,5-difluoro-4-(7-(2-hydroxypropan-2-yl)-2-methyl-2H-indazol-5-yl)benzyl)-7-fluoroisoindolin-1-one] |  |  | 76 | 591 | inactive
6 | Cn1cc2c(-c3cc(F)c(CN4Cc5cccc(F)c5C4=O)cc3F)ccc(C(C)(C)O)c2n1 [Compound 163, 2-(2,5-difluoro-4-(7-(2-hydroxypropan-2-yl)-2-methyl-2H-indazol-4-yl)benzyl)-7-fluoroisoindolin-1-one] | ≥ 10000 | 11 | 78 | 124 | 
7 | Cn1cc2cc(-c3cc(F)c(CN4Cc5ncccc5C4=O)c(C4CC4)c3)cc(C(C)(C)O)c2n1 [Compound 88, 6-(2-cyclopropyl-6-fluoro-4-(7-(2-hydroxypropan-2-yl)-2-methyl-2H-indazol-5-yl)benzyl)-6,7-dihydro-5H-pyrrolo[3,4-b]pyridin-5-one] | ≥ 10000 | 21 | 82 | 398 | 
8 | CC(C)COc1cc(-c2ccc(C(C)(C)O)cc2)cc(F)c1CN1Cc2ncccc2C1=O [Compound 14, 6-((3-Fluoro-4′-(2-hydroxypropan-2-yl)-5-isobutoxy-[1,1′-biphenyl]-4-yl)methyl)-6,7-dihydro-5H-pyrrolo[3,4-b]pyridin-5-one] |  |  | 76 | 2320 | inactive
9 | Cn1cc2c(C(C)(C)O)cc(-c3ccc(CN4Cc5ncccc5C4=O)cc3)cc2n1 [Compound 23, 6-(4-(4-(2-hydroxypropan-2-yl)-2-methyl-2H-indazol-6-yl)benzyl)-6,7-dihydro-5H-pyrrolo[3,4-b]pyridin-5-one] |  |  | 48 | ≥ 10000 | inactive

Other lines, results leading:

Row | EC50 [1] [nM] | Emax [1] [%] | Emax [2] [%] | EC50 [2] [nM] | Agonist Activity Human M1 EC50 [1] | Structure (SMILES)
10 |  |  | 74 | 3360 | inactive | [2H]C1([2H])c2ncccc2C(=O)N1Cc1c(F)cc(-c2ccc(C(C)(C)O)c3nn(C)cc23)cc1C1CCCC1 [Compound 152, 6-(2-cyclopentyl-6-fluoro-4-(7-(2-hydroxypropan-2-yl)-2-methyl-2H-indazol-4-yl)benzyl)-6,7-dihydro-5H-pyrrolo[3,4-b]pyridin-5-one-7,7-d2]
11 | ≥ 10000 | 28 | 65 | 135 |  | Cc1cc(-c2ccc(C(C)(C)O)c3nn(C)cc23)cc(Cl)c1CN1Cc2ncccc2C1=O [Compound 65, 6-(2-chloro-4-(7-(2-hydroxypropan-2-yl)-2-methyl-2H-indazol-4-yl)-6-methylbenzyl)-6,7-dihydro-5H-pyrrolo[3,4-b]pyridin-5-one]
12 |  |  | 72 | 2120 | inactive | CC(C)(O)c1ccc(-c2ccc(CN3Cc4ncccc4C3=O)c(F)c2)cc1 [Compound 13, 6-((3-fluoro-4′-(2-hydroxypropan-2-yl)-[1,1′-biphenyl]-4-yl)methyl)-6,7-dihydro-5H-pyrrolo[3,4-b]pyridin-5-one]
13 |  |  | 60 | 6960 | inactive | Cc1cc(-c2ccc(C(C)(C)O)c3ccccc23)cc(F)c1CN1Cc2ncccc2C1=O [Compound 72, 6-(2-fluoro-4-(4-(2-hydroxypropan-2-yl)naphthalen-1-yl)-6-methylbenzyl)-6,7-dihydro-5H-pyrrolo[3,4-b]pyridin-5-one]
14 |  |  | 85 | 1270 | inactive | [2H]C1([2H])c2ncccc2C(=O)N1Cc1c(F)cc(-c2ccc(C(C)(C)O)c3nn(C)cc23)cc1N1CCC1 [Compound 151, 6-(2-(azetidin-1-yl)-6-fluoro-4-(7-(2-hydroxypropan-2-yl)-2-methyl-2H-indazol-4-yl)benzyl)-6,7-dihydro-5H-pyrrolo[3,4-b]pyridin-5-one-7,7-d2]
15 |  |  | 64 | 445 | inactive | Cn1cc2c(-c3ccc(CN4Cc5ncccc5C4=O)c(F)c3F)ccc(C(C)(C)O)c2n1 [Compound 63, 6-(2,3-difluoro-4-(7-(2-hydroxypropan-2-yl)-2-methyl-2H-indazol-4-yl)benzyl)-6,7-dihydro-5H-pyrrolo[3,4-b]pyridin-5-one]
